# Measurements taken from patent US12102637B2, “Pharmaceutical formulations for treating endometriosis, uterine fibroids, polycystic ovary syndrome or adenomyosis” (AbbVie Inc., priority 2017, dated 2024).
# “Also recorded” adds a separate entry of the source.
# Legend:
# [1] = Compound A solubility experiment in water at 37° C. (gel formation); type: physicochemical
# Protocol: The dotted line in FIG. 2 is the theoretical concentration based on the weights of the solids added and the volume of water. […] Deviation of the concentrations from the theoretical line is due to the volume expansion upon dissolution of large amount of solutes. Beyond that, the concentrations deviate from the theoretical line, but the solution is still clear and no visible gelling was observed. When more than 500 mg of Compound A solid was added, visible gelling was observed, therefore, concentrations were not determined.
# [2] = test system: cytochrome P450 (CYP) 3A enzyme; test: Elagolix as inducer and substrate of CYP3A
# Description: Co-administration with elagolix may decrease plasma concentration of drugs that are substrates of CYP3A.
# Elagolix is a substrate of CYP3A, P-gp, and organic anion transporting polypeptide (OATP)1B1. Clinically meaningful interactions are not expected when elagolix is co-administered with drugs that inhibit CYP3A or P-gp.
# monkeys = test: Repeat-dose study in monkeys (reproductive organs); type: in vivo, monkey; conditions: monkeys, 75, 150, 300 and 600 mg/kg/day, all doses
# Description: Based on pharmacologic actions of elagolix in humans a reversible effect on fertility may be expected in women.
# menstrual bleeding = test: Effects on menstrual bleeding patterns (electronic daily diary; bleeding/spotting days, intensity, amenorrhea, resumption of menses); type: in vivo, human; conditions: for Mean bleeding/spotting days in prior 28 days / Mean Intensity score: Baseline; for Mean Intensity score: scale 1 to 4 (1 = spotting, 4 = heavy), subjects with at least 1 day of bleeding or spotting in 28 day interval
# [3] = test system: women with moderate to severe endometriosis-related pain; test: PROMIS Fatigue SF-6a T-score in Phase III endometriosis study; type: in vivo, human
# Protocol: A Phase III study was conducted to assess the effects of elagolix for clinically meaningful reductions in pain and other symptoms. Data provided examined the impact of elagolix on fatigue in women with moderate to severe endometriosis-related pain. […] Fatigue was assessed using the Patient Reported Outcome Measurement Information System (PROMIS®), Fatigue Short Form (SF) 6a. Six items assessed a range of self-reported symptoms from mild, subjective feelings of tiredness to overwhelming, sustained sense of exhaustion that likely decreases one's ability to execute daily activities and function normally. The domain was divided into the experience of fatigue (frequency, duration and intensity) and impact of fatigue on physical, mental and social activities. All items assessed fatigue over the previous seven days. Responses to each question was filed on a 5-item Likert scale: 1—“Not at all”; 2—“A little bit”; 3—“Somewhat”; 4—“Quite a bit”; and 5—“Very much.” The questionnaire was administered at baseline and months 1, 3, and 6. Lower scores indicated less fatigue. Post-hoc, Fatigue SF-6a raw scores were converted to T-scores. The T-score rescales […] the raw score into a standardized score such that the general population has a mean of 50 and a standard deviation (SD) of 10. Analysis: […] ANCOVA controlled for treatment as main effect. Baseline Fatigue SF-6a T-score included as a covariate.
# rats = test: 2-year carcinogenicity study in rats; type: in vivo; conditions: rat
# Description: The rat tumors were identified as being species-specific and of negligible relevance to humans. This conclusion is based on a follow-on thyroid and hepatic effects-related investigative study performed to document the possibility that thyroid and liver tumors may be specific to rat and occurred via induction of hepatic drug metabolizing enzymes at the high dose.
# [4] = test system: CYP3A, CYP2D6, CYP2C8, uridine glucuronosyltransferases (UGTs); test: Metabolism pathways of elagolix; type: in vitro ADME, human
# estradiol = test: Estradiol suppression in the Phase 3 studies in women with endometriosis; type: in vivo, human; conditions: 150 mg QD, partial suppression
# [5] = BCS classification of Compound A; type: physicochemical
# Description: Release Profile Drugs administered via oral solid dosage forms should dissolve in vivo before systemic absorption can take place. There are number of factors which affect drug dissolution, including physicochemical properties of the drug substance. […] Incomplete dissolution may result in highly variable inter- and intra patient bioavailability. It has been determined in the present application that Compound A is a BCS class III drug. It also has been determined in the present application that the monosodium salt of Compound A has a tendency to form a gel, particularly when present at an amount greater than about 10% by weight in the absence of an appropriate anti-gelling agent, when administered orally in a solid dosage form. Thus, it is desirable to provide oral solid dosage forms that facilitate drug dissolution.
compound,measurement,setting,value
"COc1cccc(-c2c(C)n(Cc3c(F)cccc3C(F)(F)F)c(=O)n(C[C@H](NCCCC(=O)O)c3ccccc3)c2=O)c1F [Compound A, 4-((R)-2-[5-(2-fluoro-3-methoxy-phenyl)-3-(2-fluoro-6-trifluoromethyl-benzyl)-4-methyl-2,6-dioxo-3,6-dihydro-2H-pyrimidin-1-yl]-1-phenyl-ethylamino)-butyric acid]",Final pH,[1]; 12.2 mg added to 1.5 mL water,9.66
same,Measured Concentration,[1]; 12.2 mg added to 1.5 mL water,7.45 mg/mL
same,Observation,[1]; 12.2 mg added to 1.5 mL water,Clear solution
same,Final pH,[1]; 28.7 mg added to 1.5 mL water,9.96
same,Measured Concentration,[1]; 28.7 mg added to 1.5 mL water,17.3 mg/mL
same,Observation,[1]; 28.7 mg added to 1.5 mL water,Clear solution
same,Final pH,[1]; 49.8 mg added to 1.5 mL water,10.10
same,Measured Concentration,[1]; 49.8 mg added to 1.5 mL water,28.0 mg/mL
same,Observation,[1]; 49.8 mg added to 1.5 mL water,Clear solution
same,Final pH,[1]; 100.4 mg added to 1.5 mL water,10.16
same,Measured Concentration,[1]; 100.4 mg added to 1.5 mL water,60.8 mg/mL
same,Observation,[1]; 100.4 mg added to 1.5 mL water,Clear solution
same,Final pH,[1]; 202.5 mg added to 1.5 mL water,10.18
same,Measured Concentration,[1]; 202.5 mg added to 1.5 mL water,111 mg/mL
same,Observation,[1]; 202.5 mg added to 1.5 mL water,Clear solution
same,Final pH,[1]; 295.6 mg added to 1.5 mL water,10.20
same,Measured Concentration,[1]; 295.6 mg added to 1.5 mL water,149 mg/mL
same,Observation,[1]; 295.6 mg added to 1.5 mL water,Clear solution
same,Final pH,[1]; 503.2 mg added to 1.5 mL water,10.17
same,Measured Concentration,[1]; 503.2 mg added to 1.5 mL water,170 mg/mL
same,Observation,[1]; 503.2 mg added to 1.5 mL water,Clear solution
same,Observation,[1]; 700.9 mg added to 1.5 mL water,Gel formation
same,Observation,[1]; 990.0 mg added to 1.5 mL water,Gel formation
same,induction of cytochrome P450 (CYP) 3A enzyme,[2],weak to moderate inducer
same,substrate of CYP3A,[2],substrate
same,reproductive organ findings in repeat-dose study,monkeys,"reversible atrophy of reproductive organs (cervix, uterus and vagina)"
same,Mean bleeding/spotting days in prior 28 days,menstrual bleeding; Elagolix 150 mg Once Daily,5.3 days
same,Mean Intensity score,menstrual bleeding; Elagolix 150 mg Once Daily,2.6
same,Mean bleeding/spotting days in prior 28 days,menstrual bleeding; Elagolix 200 mg Twice Daily,5.7 days
same,Mean Intensity score,menstrual bleeding; Elagolix 200 mg Twice Daily,2.5
same,incidence of amenorrhea,"menstrual bleeding; first six months of treatment, 150 mg once daily",6-17%
same,incidence of amenorrhea,"menstrual bleeding; first six months of treatment, 200 mg twice daily",13-52%
same,incidence of amenorrhea,"menstrual bleeding; second 6 months of treatment, 150 mg once daily",11-15%
same,incidence of amenorrhea,"menstrual bleeding; second 6 months of treatment, 200 mg twice daily",46-57%
same,bleeding and spotting days and bleeding intensity,"menstrual bleeding; up to 12 months, subjects who reported menstrual bleeding",dose-dependent reduction in mean number of bleeding and spotting days and bleeding intensity
same,PROMIS Fatigue SF-6a T-Score,"[3]; 200 mg, Month 1, vs placebo",statistically significant reduction in fatigue
same,PROMIS Fatigue SF-6a T-Score,"[3]; both doses (150 mg QD, 200 mg BID), Months 3 and 6, vs placebo",Statistically significant reductions relative to placebo
same,margin of safety with respect to 200 mg BID in women,"rats; both, in vivo, 2 years",13 fold
same,"tumors, 2-year carcinogenicity study",rats; high dose,increase in thyroid (male and female) and liver (males only) tumors
same,Metabolism (major pathway),[4],CYP3A (major)
same,"Metabolism, minor pathways",[4]; listed as Elagolix,"Minor pathways include: CYP2D6,; also recorded: CYP2C8, and uridine; also recorded: glucuronosyltransferases (UGTs)"
same,suppression of estradiol to,estradiol,approximately 50 pg/mL
same,BCS class,[5],BCS class III
